The text below walks through data of ChEMBL document CHEMBL1201862, “PubChem BioAssay data set” (2004).

Activity calls are given as the source filed them.

For orientation: IC50 means the midpoint of a concentration-inhibition curve. The term Ki denotes the dissociation constant of the complex between target and ligand, obtained from inhibition or displacement.

Type in all cases: functional
The target of assay [1] is T1, Ubiquitin-conjugating enzyme E2 N (Homo sapiens, UniProt P61088).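 Note: Dose-response confirmation in a TR-FRET assay detecting UBC13-driven polyubiquitin chain formation, inhibition measured.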
T1 sequence (P61088 whole entry): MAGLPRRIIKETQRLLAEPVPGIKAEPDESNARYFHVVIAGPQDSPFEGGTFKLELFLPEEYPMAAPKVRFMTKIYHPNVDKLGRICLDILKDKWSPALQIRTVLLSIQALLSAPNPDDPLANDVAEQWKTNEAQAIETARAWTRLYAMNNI

In assay [2] the target is Apoptotic protease-activating factor 1 (Homo sapiens, UniProt O14727).
Assay [3] deals with T2, Sentrin-specific protease 7 (Homo sapiens, UniProt Q9BQF6).
T2 sequence (Q9BQF6 whole entry): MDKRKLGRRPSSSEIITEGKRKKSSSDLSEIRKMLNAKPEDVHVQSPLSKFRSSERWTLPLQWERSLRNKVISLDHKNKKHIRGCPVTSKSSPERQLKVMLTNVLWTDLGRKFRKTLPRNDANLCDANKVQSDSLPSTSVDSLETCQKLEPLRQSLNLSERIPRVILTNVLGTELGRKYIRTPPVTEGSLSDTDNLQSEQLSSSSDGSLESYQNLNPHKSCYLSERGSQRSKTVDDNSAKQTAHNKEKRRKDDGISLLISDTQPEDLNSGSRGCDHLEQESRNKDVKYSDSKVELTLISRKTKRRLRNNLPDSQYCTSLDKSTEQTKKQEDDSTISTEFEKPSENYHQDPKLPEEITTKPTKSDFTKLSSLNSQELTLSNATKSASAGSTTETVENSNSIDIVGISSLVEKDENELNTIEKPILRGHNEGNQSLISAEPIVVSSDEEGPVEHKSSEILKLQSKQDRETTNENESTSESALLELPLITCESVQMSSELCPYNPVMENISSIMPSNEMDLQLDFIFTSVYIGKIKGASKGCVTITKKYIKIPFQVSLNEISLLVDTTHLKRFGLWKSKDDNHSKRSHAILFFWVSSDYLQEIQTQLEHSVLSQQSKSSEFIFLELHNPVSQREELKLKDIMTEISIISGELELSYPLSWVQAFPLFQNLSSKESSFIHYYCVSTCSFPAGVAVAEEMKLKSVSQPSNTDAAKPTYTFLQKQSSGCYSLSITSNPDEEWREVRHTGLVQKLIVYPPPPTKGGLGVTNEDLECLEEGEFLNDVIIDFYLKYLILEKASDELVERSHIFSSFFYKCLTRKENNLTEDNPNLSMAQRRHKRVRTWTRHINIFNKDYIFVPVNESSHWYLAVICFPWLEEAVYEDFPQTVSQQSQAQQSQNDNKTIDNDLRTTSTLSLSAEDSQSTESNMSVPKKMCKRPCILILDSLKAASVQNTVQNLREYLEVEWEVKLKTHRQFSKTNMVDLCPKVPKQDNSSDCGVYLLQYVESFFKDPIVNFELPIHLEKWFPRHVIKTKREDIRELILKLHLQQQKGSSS
The experiment in a line: inhibition of human SENP7 cleavage activity – biochemical, luminescence, set 2, SAR follow-up (AID 588600).

Assay [4] deals with T3, Sentrin-specific protease 6 (Homo sapiens, UniProt Q9GZR1).
T3 sequence (Q9GZR1 whole entry): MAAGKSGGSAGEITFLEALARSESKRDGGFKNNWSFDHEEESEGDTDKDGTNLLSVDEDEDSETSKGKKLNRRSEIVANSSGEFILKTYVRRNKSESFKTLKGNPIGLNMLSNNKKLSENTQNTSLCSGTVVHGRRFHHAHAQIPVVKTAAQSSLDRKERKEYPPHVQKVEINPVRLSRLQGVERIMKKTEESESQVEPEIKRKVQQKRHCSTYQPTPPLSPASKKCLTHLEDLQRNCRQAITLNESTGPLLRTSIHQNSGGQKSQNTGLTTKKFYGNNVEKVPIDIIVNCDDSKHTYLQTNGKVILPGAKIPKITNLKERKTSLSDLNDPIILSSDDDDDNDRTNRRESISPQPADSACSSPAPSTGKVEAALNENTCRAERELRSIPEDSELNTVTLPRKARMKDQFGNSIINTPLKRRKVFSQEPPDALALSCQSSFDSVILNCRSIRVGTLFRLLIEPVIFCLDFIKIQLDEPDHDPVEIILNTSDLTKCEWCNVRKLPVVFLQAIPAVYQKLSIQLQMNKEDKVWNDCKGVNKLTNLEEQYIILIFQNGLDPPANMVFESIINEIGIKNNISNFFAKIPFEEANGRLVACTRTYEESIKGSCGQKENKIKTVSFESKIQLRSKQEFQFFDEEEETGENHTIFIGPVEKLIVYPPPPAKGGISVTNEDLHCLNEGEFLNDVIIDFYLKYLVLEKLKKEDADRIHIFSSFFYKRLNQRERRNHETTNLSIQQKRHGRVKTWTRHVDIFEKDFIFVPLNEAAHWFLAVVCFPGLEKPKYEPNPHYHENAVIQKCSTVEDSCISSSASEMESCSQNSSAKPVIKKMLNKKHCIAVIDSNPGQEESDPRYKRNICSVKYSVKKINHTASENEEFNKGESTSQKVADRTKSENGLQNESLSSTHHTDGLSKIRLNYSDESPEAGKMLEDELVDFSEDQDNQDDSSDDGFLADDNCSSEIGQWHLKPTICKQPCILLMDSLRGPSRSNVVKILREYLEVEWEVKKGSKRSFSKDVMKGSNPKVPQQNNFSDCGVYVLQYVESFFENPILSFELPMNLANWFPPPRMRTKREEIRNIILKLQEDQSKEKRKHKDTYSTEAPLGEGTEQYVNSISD
The experiment in a line: inhibition of human SENP6 catalytic domain – biochemical, luminescence, set 2, SAR follow-up (AID 588598).

The target of assay [5] is T4, Sentrin-specific protease 8 (Homo sapiens, UniProt Q96LD8).
T4 sequence (Q96LD8 whole entry): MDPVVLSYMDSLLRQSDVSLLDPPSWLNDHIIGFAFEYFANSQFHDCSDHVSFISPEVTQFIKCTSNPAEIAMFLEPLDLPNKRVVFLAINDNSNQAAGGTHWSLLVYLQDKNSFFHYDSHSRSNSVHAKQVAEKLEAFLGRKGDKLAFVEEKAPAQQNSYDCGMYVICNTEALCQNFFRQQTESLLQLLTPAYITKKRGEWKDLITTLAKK
Nature of the assay: inhibition of sentrin protease 8 – biochemical, luminescence, set 2, SAR follow-up (AID 588601).

In assay [6] the target is T5, Caspase-3 (Homo sapiens, UniProt P42574).
T5 sequence (P42574 whole entry): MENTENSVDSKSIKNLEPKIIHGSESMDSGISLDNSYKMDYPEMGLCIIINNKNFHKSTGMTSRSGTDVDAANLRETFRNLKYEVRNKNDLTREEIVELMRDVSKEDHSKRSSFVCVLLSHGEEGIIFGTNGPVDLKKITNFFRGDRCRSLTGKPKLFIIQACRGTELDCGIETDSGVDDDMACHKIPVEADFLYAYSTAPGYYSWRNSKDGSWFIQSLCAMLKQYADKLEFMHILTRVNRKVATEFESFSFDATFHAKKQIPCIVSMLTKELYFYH
Nature of the assay: inhibition of recombinant caspase-3 activity – biochemical, luminescence, set 2, selectivity assay for SENP protease inhibitor project, SAR follow-up (AID 588599).

Assay [7] has as its target Multidrug resistance protein CDR1 (Candida albicans, UniProt P43071). The experiment in a line: Candida albicans Cdr1 pump inhibition curves – singleplex, Cherry Pick2 set, dose response (AID 623996). The conditions noted are these: read-out: EC50_MICROM.
Assay [8] has as its target T3, Sentrin-specific protease 6. The experiment in a line: SAR Analysis of small molecule inhibitors of Sentrin-specific protease 6 (SENP6) using a Luminescent assay. [Related pubchem assays (depositor defined):AID2582, AID2599].
The target of assay [9] is T5, Caspase-3. Nature of the assay: SAR Analysis of small molecule inhibitors of Sentrin-specific proteases (SENPs) using a Caspase-3 Selectivity assay. [Related pubchem assays (depositor defined):AID2540, AID2599, AID434973, AID489001].
Assay [10] concerns the target T2, Sentrin-specific protease 7. The experiment in a line: inhibition of human SENP7 cleavage activity – biochemical, luminescence, SAR follow-up (AID 504497).
Assay [11] addresses T4, Sentrin-specific protease 8. Nature of the assay: inhibition of human SENP8 cleavage activity – biochemical, luminescence, SAR follow-up (AID 504501).
The target of assay [12] is T6, High affinity choline transporter 1 (Homo sapiens, UniProt Q9GZV3).
T6 sequence (Q9GZV3 whole entry): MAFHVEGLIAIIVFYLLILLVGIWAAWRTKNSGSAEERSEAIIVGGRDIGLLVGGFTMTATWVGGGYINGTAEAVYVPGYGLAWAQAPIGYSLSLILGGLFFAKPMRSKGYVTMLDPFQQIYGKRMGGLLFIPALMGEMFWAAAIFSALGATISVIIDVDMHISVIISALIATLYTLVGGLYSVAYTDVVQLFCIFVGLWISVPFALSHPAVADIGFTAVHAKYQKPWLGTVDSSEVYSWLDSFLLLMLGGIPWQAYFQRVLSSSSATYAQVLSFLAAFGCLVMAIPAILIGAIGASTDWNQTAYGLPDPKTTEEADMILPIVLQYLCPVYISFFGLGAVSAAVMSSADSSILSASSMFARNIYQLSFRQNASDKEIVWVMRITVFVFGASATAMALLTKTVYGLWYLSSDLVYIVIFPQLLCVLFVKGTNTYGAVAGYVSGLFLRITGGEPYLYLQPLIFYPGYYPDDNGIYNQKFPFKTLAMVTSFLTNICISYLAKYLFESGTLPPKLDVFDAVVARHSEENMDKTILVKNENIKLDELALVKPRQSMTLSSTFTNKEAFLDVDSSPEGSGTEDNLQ
The experiment in a line: human choline transporter potentiators, potency – cell-based, 10-point CRC, membrane potential dye, dose response (AID 602376).

For assay [13], the target named is cAMP-dependent protein kinase catalytic subunit alpha (Homo sapiens, UniProt P17612).
Assay [14] addresses Mitogen-activated protein kinase kinase kinase kinase 4 (Homo sapiens, UniProt O95819).
The target in assay [15] is Dual specificity protein kinase CLK4 (Homo sapiens, UniProt Q9HAZ1).
In assay [16] the target is MAP kinase-interacting serine/threonine-protein kinase 2 (Homo sapiens, UniProt Q9HBH9).
The target of assay [17] is Glycogen synthase kinase-3 beta (Homo sapiens, UniProt P49841).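 Note: value comes from a broad kinome profiling panel, with GSK3B as the panel member.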
The target of assay [18] is Interleukin-1 receptor-associated kinase 4 (Homo sapiens, UniProt Q9NWZ3).
Assay [19] has as its target Cell division cycle 7-related protein kinase (Homo sapiens, UniProt O00311).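 Note: value obtained from a kinome-wide kinase panel.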
For assay [20], the target named is Serine/threonine-protein kinase pim-1 (Homo sapiens, UniProt P11309).
For assay [21], the target named is Homeodomain-interacting protein kinase 2 (Homo sapiens, UniProt Q9H2X6).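 Note: measured within a kinome-wide kinase profiling panel, HIPK2 being one panel member.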
In assay [22] the target is Glycogen synthase kinase-3 alpha (Homo sapiens, UniProt P49840).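 Note: GSK3A result taken from a broad kinome-wide kinase panel.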
Chain of Glycogen synthase kinase-3 alpha (P49840 whole entry): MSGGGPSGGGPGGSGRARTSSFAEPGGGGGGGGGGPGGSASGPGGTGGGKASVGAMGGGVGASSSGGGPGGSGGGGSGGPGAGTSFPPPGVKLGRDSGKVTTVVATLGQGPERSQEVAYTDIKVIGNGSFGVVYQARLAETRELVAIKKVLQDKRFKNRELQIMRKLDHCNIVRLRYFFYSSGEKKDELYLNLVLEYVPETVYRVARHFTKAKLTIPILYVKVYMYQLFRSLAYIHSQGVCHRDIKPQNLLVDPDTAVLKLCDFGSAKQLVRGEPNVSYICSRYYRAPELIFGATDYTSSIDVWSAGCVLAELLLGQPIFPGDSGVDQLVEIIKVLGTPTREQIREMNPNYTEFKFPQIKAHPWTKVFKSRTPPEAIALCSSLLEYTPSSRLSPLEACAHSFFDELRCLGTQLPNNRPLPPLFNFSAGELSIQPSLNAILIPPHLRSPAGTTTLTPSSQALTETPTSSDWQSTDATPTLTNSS

Chain of Mitogen-activated protein kinase kinase kinase kinase 4 (O95819 whole entry): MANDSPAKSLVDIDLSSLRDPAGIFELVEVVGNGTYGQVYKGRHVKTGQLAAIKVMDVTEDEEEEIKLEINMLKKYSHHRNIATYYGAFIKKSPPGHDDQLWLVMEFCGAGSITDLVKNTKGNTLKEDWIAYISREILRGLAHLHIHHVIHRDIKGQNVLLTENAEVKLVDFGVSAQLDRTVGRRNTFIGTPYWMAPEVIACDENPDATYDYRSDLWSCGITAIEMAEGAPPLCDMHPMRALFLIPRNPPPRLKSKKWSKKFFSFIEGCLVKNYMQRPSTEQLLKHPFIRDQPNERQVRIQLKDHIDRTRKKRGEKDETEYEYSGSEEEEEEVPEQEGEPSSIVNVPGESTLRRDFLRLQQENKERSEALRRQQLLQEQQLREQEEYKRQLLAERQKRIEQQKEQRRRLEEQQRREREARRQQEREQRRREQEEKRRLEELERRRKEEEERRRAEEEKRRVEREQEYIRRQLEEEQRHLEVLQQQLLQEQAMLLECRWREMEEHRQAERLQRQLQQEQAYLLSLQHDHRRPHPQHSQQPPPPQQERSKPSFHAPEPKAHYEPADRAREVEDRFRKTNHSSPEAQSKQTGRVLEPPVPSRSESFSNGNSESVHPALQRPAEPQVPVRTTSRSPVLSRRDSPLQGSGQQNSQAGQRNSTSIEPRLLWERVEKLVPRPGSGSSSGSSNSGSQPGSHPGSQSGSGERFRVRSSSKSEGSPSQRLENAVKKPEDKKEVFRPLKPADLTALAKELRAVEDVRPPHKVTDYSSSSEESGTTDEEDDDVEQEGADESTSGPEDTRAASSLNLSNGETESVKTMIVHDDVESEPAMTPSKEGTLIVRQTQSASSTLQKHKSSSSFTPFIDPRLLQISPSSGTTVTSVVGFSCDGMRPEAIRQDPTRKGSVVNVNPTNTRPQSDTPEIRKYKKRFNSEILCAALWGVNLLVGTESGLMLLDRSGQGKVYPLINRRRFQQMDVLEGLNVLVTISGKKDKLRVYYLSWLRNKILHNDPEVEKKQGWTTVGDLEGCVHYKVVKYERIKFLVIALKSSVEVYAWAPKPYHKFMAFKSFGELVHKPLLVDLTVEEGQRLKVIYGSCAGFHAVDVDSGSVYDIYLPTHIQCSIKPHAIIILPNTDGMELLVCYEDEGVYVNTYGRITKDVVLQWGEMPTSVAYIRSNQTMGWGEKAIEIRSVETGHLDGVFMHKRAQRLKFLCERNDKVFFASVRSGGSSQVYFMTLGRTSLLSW
Chain of Homeodomain-interacting protein kinase 2 (Q9H2X6 whole entry): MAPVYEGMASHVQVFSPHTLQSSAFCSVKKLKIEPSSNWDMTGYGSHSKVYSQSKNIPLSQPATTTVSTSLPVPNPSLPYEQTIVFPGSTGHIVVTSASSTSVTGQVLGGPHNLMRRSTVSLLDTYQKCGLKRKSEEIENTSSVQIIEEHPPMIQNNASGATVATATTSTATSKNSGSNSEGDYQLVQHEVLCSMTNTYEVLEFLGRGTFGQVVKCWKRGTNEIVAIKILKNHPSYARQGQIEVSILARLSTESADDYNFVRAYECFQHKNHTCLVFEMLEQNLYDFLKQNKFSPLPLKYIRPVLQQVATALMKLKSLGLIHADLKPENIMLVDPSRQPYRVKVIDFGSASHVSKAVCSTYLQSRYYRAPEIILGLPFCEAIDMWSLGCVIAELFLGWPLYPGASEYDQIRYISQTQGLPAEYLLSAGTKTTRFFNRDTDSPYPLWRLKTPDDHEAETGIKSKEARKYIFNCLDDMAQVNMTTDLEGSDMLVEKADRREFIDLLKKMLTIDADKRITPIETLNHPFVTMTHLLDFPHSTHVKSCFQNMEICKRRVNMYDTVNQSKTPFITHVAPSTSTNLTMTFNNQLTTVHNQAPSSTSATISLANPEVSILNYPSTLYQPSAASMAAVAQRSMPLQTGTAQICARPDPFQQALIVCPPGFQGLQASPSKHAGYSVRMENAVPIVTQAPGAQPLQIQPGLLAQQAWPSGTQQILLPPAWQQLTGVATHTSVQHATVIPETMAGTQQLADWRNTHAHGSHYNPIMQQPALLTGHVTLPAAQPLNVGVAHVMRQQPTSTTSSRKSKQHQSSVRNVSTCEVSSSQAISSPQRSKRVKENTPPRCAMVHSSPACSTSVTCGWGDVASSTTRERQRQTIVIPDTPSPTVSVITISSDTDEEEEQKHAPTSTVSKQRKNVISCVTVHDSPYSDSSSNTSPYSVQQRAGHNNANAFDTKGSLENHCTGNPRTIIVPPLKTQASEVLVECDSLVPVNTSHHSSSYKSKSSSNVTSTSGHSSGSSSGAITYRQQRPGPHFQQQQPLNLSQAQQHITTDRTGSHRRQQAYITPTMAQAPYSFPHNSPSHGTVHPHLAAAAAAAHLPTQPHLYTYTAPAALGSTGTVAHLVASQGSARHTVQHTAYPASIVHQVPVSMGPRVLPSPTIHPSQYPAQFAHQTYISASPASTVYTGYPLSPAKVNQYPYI
Chain of Apoptotic protease-activating factor 1 (O14727 whole entry): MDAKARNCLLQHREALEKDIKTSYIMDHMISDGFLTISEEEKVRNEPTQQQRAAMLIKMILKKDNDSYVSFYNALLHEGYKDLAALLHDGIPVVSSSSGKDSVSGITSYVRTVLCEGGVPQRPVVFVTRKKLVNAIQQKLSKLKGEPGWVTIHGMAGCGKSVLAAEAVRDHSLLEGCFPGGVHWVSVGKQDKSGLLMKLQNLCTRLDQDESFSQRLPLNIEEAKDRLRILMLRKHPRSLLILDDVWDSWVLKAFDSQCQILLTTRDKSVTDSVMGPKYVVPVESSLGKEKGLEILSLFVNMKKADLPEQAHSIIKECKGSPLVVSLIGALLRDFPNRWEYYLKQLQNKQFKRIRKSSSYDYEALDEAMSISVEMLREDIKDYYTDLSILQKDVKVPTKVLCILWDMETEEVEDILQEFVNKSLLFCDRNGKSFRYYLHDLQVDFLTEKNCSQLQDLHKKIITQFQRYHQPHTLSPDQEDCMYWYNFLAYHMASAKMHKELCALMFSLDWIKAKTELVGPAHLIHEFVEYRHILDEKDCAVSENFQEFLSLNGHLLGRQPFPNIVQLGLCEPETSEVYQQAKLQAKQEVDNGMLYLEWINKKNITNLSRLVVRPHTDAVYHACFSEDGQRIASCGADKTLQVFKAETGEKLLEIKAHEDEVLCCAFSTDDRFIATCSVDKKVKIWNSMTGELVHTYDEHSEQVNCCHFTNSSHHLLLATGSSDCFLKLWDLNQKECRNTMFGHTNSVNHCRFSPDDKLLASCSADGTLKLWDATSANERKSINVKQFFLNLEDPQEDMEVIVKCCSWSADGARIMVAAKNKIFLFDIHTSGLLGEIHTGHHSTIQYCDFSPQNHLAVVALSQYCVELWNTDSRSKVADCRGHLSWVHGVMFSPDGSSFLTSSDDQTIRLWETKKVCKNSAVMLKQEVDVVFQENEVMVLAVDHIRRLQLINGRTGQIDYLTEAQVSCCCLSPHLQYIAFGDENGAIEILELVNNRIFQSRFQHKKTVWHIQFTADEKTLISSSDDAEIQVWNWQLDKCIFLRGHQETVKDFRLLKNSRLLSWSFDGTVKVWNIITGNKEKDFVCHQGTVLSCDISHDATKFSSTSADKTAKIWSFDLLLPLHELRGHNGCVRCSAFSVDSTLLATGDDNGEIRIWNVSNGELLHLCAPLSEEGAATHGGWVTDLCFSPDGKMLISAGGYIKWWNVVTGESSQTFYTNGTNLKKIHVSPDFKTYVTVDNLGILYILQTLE
Chain of Serine/threonine-protein kinase pim-1 (P11309 whole entry): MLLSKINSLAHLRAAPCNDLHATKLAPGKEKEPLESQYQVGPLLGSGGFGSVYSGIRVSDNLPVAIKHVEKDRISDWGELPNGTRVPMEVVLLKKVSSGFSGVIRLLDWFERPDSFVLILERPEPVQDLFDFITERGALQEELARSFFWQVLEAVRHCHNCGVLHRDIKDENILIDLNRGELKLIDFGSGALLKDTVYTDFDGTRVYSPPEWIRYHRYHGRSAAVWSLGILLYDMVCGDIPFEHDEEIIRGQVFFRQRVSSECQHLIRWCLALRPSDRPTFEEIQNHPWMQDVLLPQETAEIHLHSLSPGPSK
Chain of MAP kinase-interacting serine/threonine-protein kinase 2 (Q9HBH9 whole entry): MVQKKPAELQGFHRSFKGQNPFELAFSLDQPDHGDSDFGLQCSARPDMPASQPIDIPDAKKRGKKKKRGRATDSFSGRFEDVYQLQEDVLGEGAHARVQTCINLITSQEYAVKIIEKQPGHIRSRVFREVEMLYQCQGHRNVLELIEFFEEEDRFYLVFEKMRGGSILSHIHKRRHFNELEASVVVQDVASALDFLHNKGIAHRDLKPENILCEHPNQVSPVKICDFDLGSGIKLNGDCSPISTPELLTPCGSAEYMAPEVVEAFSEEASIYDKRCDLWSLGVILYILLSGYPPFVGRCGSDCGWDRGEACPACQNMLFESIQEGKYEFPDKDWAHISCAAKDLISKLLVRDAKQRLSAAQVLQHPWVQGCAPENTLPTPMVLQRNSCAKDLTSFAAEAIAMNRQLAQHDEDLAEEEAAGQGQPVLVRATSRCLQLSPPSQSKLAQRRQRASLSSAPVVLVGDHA

Regarding `COc1ccccc1C(CNC(=O)CNC(=O)c1ccccc1Cl)N1CCCC1` (stereo not drawn), the IC50 in [1] is > 20 µM (inactive); in assay [2], > 100 µM (inactive).

In the case of `O=C(C(=O)N1CCCc2ccccc21)c1c[nH]c2ccccc12`, the IC50 in assay [3], in [4], in [5] and in [6] was > 99 µM (inactive) each time.

Take `COc1ccc2c(c1)OC[C@H]1[C@H]2N2C(=O)c3ccc(C)cc3NC(=O)[C@@]2(C)[C@H]1c1ccccc1`: the EC50 in [7] was 17.3 µM (active).

As for `CS(=O)(=O)c1ccc2nc(NC(=O)c3c(F)cccc3F)sc2c1`, the IC50 in assay [8], in assay [9], in [10] and in [11] was > 99 µM (inactive) throughout.

For the molecule `CCCCNC(=O)COCc1cc(-c2ccc3c(c2)OCO3)on1`, the EC50 in assay [12] was 8.04 µM (active).

As to `NC(=O)c1ccc(-c2ccncc2)cc1NCc1cccc(F)c1`, the Ki in assay [13] was > 7.94 µM (inactive); in [14] it was 2 µM (active); in [15], 0.1 µM (active); in assay [16], > 10 µM (inactive); in assay [17], 0.794 µM (active); in assay [18] it was > 10 µM (inactive). The Ki in assay [19] is 0.158 µM (active); in assay [20] it was 7.94 µM (active); in assay [21], > 3.16 µM (inactive).

For `Cc1cc(O)nc2[nH]nc(-c3cccc(-c4cccc(C#N)c4)c3)c12`, the figures for the Ki in [14] and in [22] were 5.01 µM (active) and 3.16 µM (active), respectively.
